Experimental findings from ChEMBL document CHEMBL1201862, “PubChem BioAssay data set” (2004) are described below.

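Compound exposure: 48 hours, 5 concentrations, 96-well plates. GI50: concentration for 50% inhibition of growth.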 Calls of active or inactive are those of the source. Rule as the data show it: active = GI50 up to about 1.1 µM and inactive = higher.

Test systems include M14; DLD-1; HOP-92; TK-10; NCI-H460; RXF 393; KM-20L2; HCT-15; SR; Malme-3M; NCI/ADR-RES; PC-3; MCF7; 786-0; MDA-N; Hs-578T; DU-145; T47D; MDA-MB-435; MDA-MB-231.
Holding throughout (experiment): growth of human tumour cells (NCI), 48 h

Turning to `Nc1nc(Cl)cc(NCCCCO)n1`, the GI50 with M14 is > 10 µM (inactive); in the assay with DLD-1, > 100 µM (inactive); in the assay with HOP-92, > 100 µM (inactive); in the assay on TK-10, > 100 µM (inactive); with NCI-H460 it was > 100 µM (inactive); with RXF 393, > 100 µM (inactive). Besides, the GI50 is > 100 µM (inactive) in the assay on KM-20L2, greater than 100 µM with HCT-15, > 100 µM (inactive) in the assay with SR and > 100 µM (inactive) in the assay with Malme-3M.

Turning to `C=C1C(O)C2(O)OCC34C(CC5C(C)=CC(=O)C(O)C5(C)C23)OC(=O)C(OC(=O)C/C=C/CCCCCCCC)C14` (stereo not drawn), the GI50 is 0.02 µM (active) in the assay with DLD-1; 0.162 µM (active) with NCI/ADR-RES; 0.02 µM (active) in the assay on HOP-92; 0.0223 µM (active) in the assay with RXF 393; 0.0208 µM (active) in the assay on KM-20L2; 0.0241 µM in the assay with HCT-15. In addition, the GI50 with Malme-3M was 0.02 µM (active).

As to `COC(C[C@H]1CCCC[C@]1(O)/C(=C\CO[Si](C(C)C)(C(C)C)C(C)C)Sc1ccccc1)OC`, the GI50 in the assay on M14 was 31.6 µM (inactive); in the assay on PC-3, 35.6 µM (inactive); with MCF7, > 100 µM (inactive); in the assay on NCI/ADR-RES it was 87.3 µM (inactive); with HOP-92, 20.5 µM (inactive); in the assay with 786-0 it was 39.4 µM (inactive). Also, the GI50 in the assay with TK-10 was > 100 µM (inactive); with NCI-H460, 60 µM (inactive); in the assay on MDA-N, 45.2 µM (inactive); in the assay on RXF 393, 16.1 µM (inactive); with Hs-578T, 29.4 µM (inactive); in the assay on DU-145, 40.1 µM (inactive). The GI50 with HCT-15 is 21.8 µM; in the assay on T47D it was 12.6 µM (inactive); in the assay on MDA-MB-435, 33 µM (inactive); in the assay with SR, 20.7 µM (inactive); in the assay with Malme-3M, 22.5 µM (inactive); in the assay with MDA-MB-231, 18.9 µM (inactive).

`CCOC(=O)CC1(c2cccc3ccccc23)OC(=O)c2ccccc21` (stereo not drawn): the GI50 was 8.69 µM (inactive) in the assay with DLD-1; 80 µM (inactive) in the assay on TK-10; 37.6 µM (inactive) with NCI-H460; 16.3 µM (inactive) in the assay with RXF 393; 45 µM (inactive) with KM-20L2; 35.5 µM in the assay with HCT-15. The GI50 in the assay with Malme-3M is 27.5 µM (inactive).

As for `CN(C)CN(C)c1nc(N(C)C)nc(N(C)CN(C)C)n1`, the GI50 in the assay with M14 was 36.7 µM (inactive); with DLD-1, 42.7 µM (inactive); in the assay on HOP-92 it was 63 µM (inactive); in the assay on 786-0 it was 34.4 µM (inactive); with TK-10, > 100 µM (inactive); in the assay on NCI-H460, 57.3 µM (inactive). Besides, the GI50 in the assay on RXF 393 was 19.5 µM (inactive); with KM-20L2, 74.5 µM (inactive); in the assay on HCT-15, 24.7 µM; in the assay on SR, 24.4 µM (inactive).

On to `CC(C)(C)c1ccc2c(c1)OP1(Oc3cccc4cccnc34)(O2)Oc2ccc(C(C)(C)C)cc2O1`, for which the GI50 with MCF7 is 0.655 µM (active); in the assay on DLD-1, 3.92 µM (inactive); in the assay on NCI/ADR-RES it was 2.96 µM (inactive); with HOP-92 it was 4.61 µM (inactive); in the assay on NCI-H460 it was 3.04 µM (inactive); in the assay on RXF 393 it was 3.37 µM (inactive). The GI50 in the assay with KM-20L2 is 4.05 µM (inactive); with HCT-15 it was 2.86 µM; in the assay on Malme-3M it was 5.28 µM (inactive).

As for `O=C(NC(Cc1ccc(I)cc1)C(=O)O)c1cccc(Br)c1` (stereo not drawn), the GI50 was 38 µM (inactive) in the assay on MCF7; > 100 µM (inactive) in the assay with DLD-1; 99.5 µM (inactive) with NCI/ADR-RES; 44.9 µM (inactive) in the assay with HOP-92; 96.8 µM (inactive) in the assay with NCI-H460; > 100 µM (inactive) with KM-20L2. For the same compound, the values for the GI50 with HCT-15 and in the assay with Malme-3M were greater than 100 µM and 70.1 µM (inactive), respectively.

Consider `CSc1nc(NC2OCC(O)C(O)C2O)c(N)c(=O)n1C` (stereo not drawn), for which the GI50 in the assay with MCF7, in the assay with DLD-1, in the assay with NCI/ADR-RES, in the assay on HOP-92, in the assay with NCI-H460 and in the assay with RXF 393 was > 100 µM (inactive) each time. Also, the GI50 in the assay with KM-20L2 is > 100 µM (inactive); in the assay on HCT-15, greater than 100 µM; in the assay with Malme-3M, > 100 µM (inactive).

On to `CCC1NC(/N=N/c2ccc([N+](=O)[O-])cc2)(P(=O)(OC(C)C)OC(C)C)OC1=O` (stereo not drawn), for which the GI50 with M14, with DLD-1, in the assay on HOP-92, in the assay with TK-10, with KM-20L2 and in the assay on SR was > 100 µM (inactive) in each case. In addition, in the assay with Malme-3M, the GI50 is > 100 µM (inactive).

Take `Cc1ccc(NC(=O)C2C(=O)N(c3ccc(C)c(C)c3)C(=O)/C2=N\NC(N)=S)cc1C` (stereo not drawn): the GI50 is > 100 µM (inactive) in the assay with M14; 79.6 µM (inactive) with DLD-1; > 100 µM (inactive) in the assay on HOP-92; > 100 µM (inactive) with 786-0; > 100 µM (inactive) with TK-10; > 100 µM (inactive) with KM-20L2. Also, the GI50 in the assay on HCT-15 is greater than 100 µM; in the assay with SR, > 100 µM (inactive); with Malme-3M, > 100 µM (inactive).

As for `O=C1Nc2ccc(Br)cc2/C1=N/c1ccc(Cl)cc1`, the GI50 in the assay on M14 was 20.7 µM (inactive); in the assay with PC-3, 25.3 µM (inactive); in the assay on MCF7, 10.2 µM (inactive); with NCI/ADR-RES, 12.6 µM (inactive); with HOP-92 it was 37.3 µM (inactive); in the assay with 786-0, 26.3 µM (inactive). Moreover, the GI50 in the assay with TK-10 was 21.8 µM (inactive); with NCI-H460 it was 14.4 µM (inactive); in the assay with MDA-N it was 6.98 µM (inactive); in the assay on RXF 393, 18.5 µM (inactive); in the assay on Hs-578T, 33.6 µM (inactive); with DU-145, 47.2 µM (inactive). Besides, the GI50 with HCT-15 is 11.1 µM; in the assay with T47D, 16.9 µM (inactive); in the assay on MDA-MB-435 it was 2.87 µM (inactive); in the assay with SR, 6.21 µM (inactive); with Malme-3M, 24.8 µM (inactive); in the assay on MDA-MB-231 it was 15.5 µM (inactive).

With `NCCNCc1c2ccccc2c(CNCCN)c2ccccc12`, the GI50 is 16.3 µM (inactive) in the assay on M14; 53.1 µM (inactive) in the assay with DLD-1; 22.2 µM (inactive) in the assay on HOP-92; 13.3 µM (inactive) in the assay on 786-0; 69 µM (inactive) in the assay with TK-10; 6.97 µM (inactive) with NCI-H460. The GI50 in the assay with RXF 393 was 15.7 µM (inactive); in the assay on KM-20L2, 10.3 µM (inactive); with HCT-15, 38 µM; in the assay on SR, 4.18 µM (inactive); in the assay with Malme-3M, 14 µM (inactive).

Regarding `O=P(Nc1ccc(Cl)cc1)(Oc1ccccc1)N(CCCl)CCCl` (stereo not drawn), the GI50 was > 100 µM (inactive) in the assay on M14; > 100 µM (inactive) in the assay on DLD-1; > 100 µM (inactive) in the assay on HOP-92; > 100 µM (inactive) in the assay with TK-10; > 100 µM (inactive) in the assay on KM-20L2; greater than 100 µM in the assay with HCT-15. Moreover, the GI50 in the assay with SR and with Malme-3M was > 100 µM (inactive) in each case.

As to `O=S(O)CCCCCSSc1ccccc1`, the GI50 in the assay with M14 was 43.8 µM (inactive); in the assay with DLD-1 it was 54.8 µM (inactive); in the assay with TK-10 it was 84.9 µM (inactive); in the assay with NCI-H460, 68.9 µM (inactive); with RXF 393 it was 18.3 µM (inactive); in the assay with SR, 8.02 µM (inactive). Further, the GI50 with Malme-3M is 10 µM (inactive).
